Where two headings read alike, the source gives them in different places.
Key:
[1] = tested on: Eimeria tenella Eli Lilly Strain 65 (Lilly 65); assay: In vitro anticoccidial test in chick kidney cell monolayers; assay type: cell-based; conditions: 72 h, 3 days, read-out: % Inhibition of Coccidia
kidney cell monolayer = assay: Toxicity to cultured kidney cell monolayer in the in vitro anticoccidial test; assay type: cell-based, chick; set-up: key: T: toxic (inhibited kidney cell monolayer formation); conditions: 3 days
Description: For in vitro screen tests, Hubbard X Hubbard chicks were maintained on drug-free starter diets in brooders in a coccidia-free room. Water was available ad libitum. At 2-3 weeks of age, 3-6 chicks were sacrificed by decapitation and bled. All tissue culture preparation, propagation and test steps were carried out using strict aseptic techniques. Kidney cells next were combined in a single sterile tube and evenly dispersed by agitation. An appropriate dilution (usually 1/10X to 1/25X) was counted microscopically in a hemocytometer and the cell suspension diluted in 500 ml sterile bottles to 200,000 to 250,000 cells/ml of growth medium. Multiwell tissue culture plates (Falcon No. 3008 or Costar No. 3524) were employed in all in vitro screen tests. Immediately after preparation of the kidney cell suspension, each of the 24 wells of 20 to 60 multiwell plates was inoculated with 1 ml of cells using a sterile syringe-type continuous pipettor (Cornwall). Plates then were incubated at once in a 5% CO2 incubator at 39° C. and ≥80% humidity. At about 24 hours one plate was removed and briefly examined for monolayer initiation under phase microscopy at 200X. At 40-48 hours monolayer growth was well initiated and satisfactory for initiation of drug tests. At this time attached cells were spreading and putting out arm-like projections in many areas of each well. The medium on plates which would not be used for drug tests at this time was replaced with prewarmed EBSS plus antibiotics, and these plates were returned to the incubator until time of use 24 to 48 hours later. The latter step was incorporated to remove debris and toxins from the young cell monolayers and also delay monolayer growth until initiation of drug tests. For each test compound an estimated 10 mg of test compound was placed in a 15×150 mm disposable screw-cap test tube (Belco No. 2009-16150). In a typical test employing 25 multiwell plates, tubes containing test compounds were set up and four drops of dimethylsulfoxide (DMSO) were added to each tube. Next 10 ml sterile distilled water was added to each tube and the tubes were capped tightly and mixed by agitation. Primary compound solutions containing about 1000 ppm test compound were serially diluted in disposable tubes (Falcon No. 2051) containing 1/2 strength growth medium, to yield the concentrations shown in Table 3 below. Sterile 1 cc disposable syringes (Tomac) were employed both for making dilutions and adding test compounds to plates. In setting up drug tests, five multiwell plates containing 48-96 hr monolayers were removed as a group from the incubator. The medium was quickly poured off one multiwell plate and 0.5 ml of the lowest dilution of test compound was added to each of two wells in the first column of wells, and an equal volume of a higher dilution of the same substance was added to the remaining two wells in the same column. This procedure was repeated with the next test substance using the wells in the second column on the plate. Dilutions of the remaining test substances were placed in corresponding columns of the plate. After compounds had been added to the first set of five plates, 0.5 ml of a 2×10^5 /ml suspension of sporozoites was added to each well of each plate using a sterile continuous pipettor. To minimize the effects of exposing growth medium to the atmosphere, all additions were made rapidly and inoculated plates were immediately returned to the incubator. Three days after drug and sporozoite addition, plates were removed a few at a time from the incubator for enumeration of parasites. […] The medium was quickly discarded and counts made under phase microscopy at 200X of the total numbers of schizonts and […] per field in each of five random fields. The average number of parasites per field was then calculated. The results of the in vitro anticoccidial tests, which are given in Table 3 below, show the compounds to have toxic effects upon cultured cells.

Salmonella typhimurium = assay type: cell-based
[2] = tested on: antibiotic resistant E. coli (E.C. 324); assay type: cell-based; conditions: Gram Neg., 6 h, 37° C., aerobic
[3] = tested on: E. coli strain 046 (E.C. 046); assay type: cell-based
[4] = tested on: Streptococcus sp. 1 X C15 (Strep C15); assay type: cell-based
[5] = tested on: Streptococcus sp. 1 X A7 (Strep A7); assay type: cell-based
[6] = tested on: Clostridium perfringens (Cp); assay type: cell-based; conditions: Anaerobic, 6 h, 37° C.
[7] = tested on: Bacteroides fragilis (Bf); assay: Antimicrobial growth inhibition, Bf; assay type: cell-based; conditions: Anaerobic, 6 h, 37° C.
anaerobic bacteria = assay type: cell-based
[8] = Growth promotion and feed utilization in chicks; assay type: in vivo, chicks (broiler cockerels)
[9] = experiment set 5, 75 ppm in feed, 8 weeks

Compound	inhibition at 0.001 ppm [1] [%]	inhibition at 0.01 ppm [1] [%]	inhibition at 0.1 ppm [1] [%]	inhibition at 1 ppm [1] [%]	% Inhibition of Coccidia: T = toxic (kidney cell monolayer; 100 ppm)	% Inhibition of Coccidia: T = toxic (kidney cell monolayer; 10.0 ppm)	further results
Oc1ccc(Cl)cc1C1=Nc2ccccc2NC1c1cc(Cl)ccc1O (stereo not drawn) [Example 5, 2,3-di(2-hydroxy-5-chlorophenyl)-1,2-dihydroquinoxaline]	1	0	6	31	T		inhibition at 10 ppm ([1]; 10.0 ppm): 100%
Oc1ccccc1C1=Nc2cc(Cl)c(Cl)cc2NC1c1ccccc1O (stereo not drawn) [Example 2, 2,3-di(2-hydroxyphenyl)-6,7-dichloro-1,2-dihydroquinoxaline]	42	71	89	100	T	T	
COc1ccc(C2=Nc3cc(C)c(C)cc3NC2c2ccc(OC)cc2O)c(O)c1 (stereo not drawn) [Example 8, 2,3-di(2-hydroxy-4-methoxyphenyl)-6,7-dimethyl-1,2-dihydroquinoxaline]	0	9	12	99	T	T	
Oc1ccc(Cl)cc1C1=Nc2cc(Cl)c(Cl)cc2NC1c1cc(Cl)ccc1O (stereo not drawn) [Example 1, 2,3-Di(2-hydroxy-5-chlorophenyl)-6-7-dichloro-1,2-dihydroquinoxaline]	53	67	61	98	T	T	Growth of S.T. in the presence of the test compound (Salmonella typhimurium; 6.4 ppm): +; Growth of S.T. in the presence of the test compound (Salmonella typhimurium; 64 ppm): +; Growth of E.C. 324 in the presence of the test compound ([2]; 6.4 ppm): +; Growth of E.C. 324 in the presence of the test compound ([2]; 64 ppm): +; Growth of E.C. 046 in the presence of the test compound ([3]; 6.4 ppm): +; Growth of E.C. 046 in the presence of the test compound ([3]; 64 ppm): +; Growth of Strep C15 in the presence of the test compound ([4]; 6.4 ppm): +; Growth of Strep C15 in the presence of the test compound ([4]; 64 ppm): +; Growth of Strep A7 in the presence of the test compound ([5]; 6.4 ppm): +; Growth of Strep A7 in the presence of the test compound ([5]; 64 ppm): +; Growth of Cp in the presence of the test compound ([6]; 6.4 ppm): -; Growth of Cp in the presence of the test compound ([6]; 64 ppm): -; Growth of Bf in the presence of the test compound ([7]; 6.4 ppm): -; Growth of Bf in the presence of the test compound ([7]; 64 ppm): -; activity against anaerobic bacteria (anaerobic bacteria): possessed activity against both anaerobic microorganisms; feed efficiency (% better or worse than control) [8, 9]: 13%; weight gain (% better or worse than control) [8, 9]: 6%; growth promotion / feed efficiency ([8]; in vivo): found to improve both weight gain and feed efficiency
